According to US8124582B2, “Treatment of diabetes” (FibroGen, Inc., priority 2002, dated 2012):

Key:
[1] = test system: PFK-P, PFK-L, enolase-1, GluT-1, lactate dehydrogenase-1, aldolase-1, hexokinase-1; experiment: In vivo expression of genes encoding enzymes involved in glucose regulation (microarray, time course); parameters: species or system Swiss Webster male mice; conditions: mice, 100 mg/kg oral gavage
Method: (§1) To determine gene induction patterns over time, twenty four Swiss Webster male mice (30-32 g) were obtained from Simonsen, Inc. and treated by oral gavage with a 4 ml/kg volume of either 0.5% carboxymethyl cellulose (CMC; Sigma-Aldrich, St. Louis Mo.) (0 mg/kg/day) or […] compound B (25 mg/ml in 0.5% CMC) (100 mg/kg). At 4, 8, 16, 24, 48, or 72 hours after the final dose, animals were anesthetized with isoflurane. The mice were then sacrificed and tissue samples of kidney, liver, brain, lung, and heart were isolated and stored in RNALATER solution (Ambion) at −80° C.
RNA from tissues obtained from the experiments described above was isolated using the following protocol. A 50 mg section of each organ was diced, 875 μl of RLT buffer (RNEASY kit; Qiagen Inc., Valencia Calif.) was added, and the pieces were homogenized for about 20 seconds using a rotor-stator POLYTRON homogenizer (Kinematica, Inc., Cincinnati Ohio). […] The RNA was eluted into 80 μL of water and quantitated with RIBOGREEN reagent (Molecular Probes, Eugene Oreg.). […] The absorbance at 260 and 280 nm was measured to determine RNA purity and concentration.
Alternatively, tissue samples were diced and homogenized in TRIZOL reagent (Invitrogen Life Technologies, Carlsbad Calif.) using a rotor-stator POLYTRON homogenizer (Kinematica). […] The absorbance at 260 and 280 nm was measured to determine RNA purity and concentration. […]

[2] = test system: inducible nitric oxide synthase (iNOS); experiment: In vivo iNOS mRNA expression (quantitative PCR); parameters: species or system Swiss Webster male mice; conditions: mice, FIG. 10A
Method: as §1
To investigate the dose response of compounds of the present invention, twelve Swiss Webster male mice (30-32 g) (obtained from Simonsen, Inc., Gilroy Calif.) were treated by oral gavage once per day for 4 days with a 4 ml/kg volume of either 0.5% carboxymethyl cellulose (CMC; Sigma-Aldrich, St. Louis Mo.), compound D (25 mg/ml in 0.5% CMC) (100 mg/kg/day), or compound B (7.5 and 25 mg/ml in 0.5% CMC) (30 and 100 mg/kg/day, respectively). Four hours after the final dose, animals were anesthetized, sacrificed, and approximately 150 mg of liver and each kidney were isolated and stored in RNALATER solution (Ambion) at −20° C.
Hypertension is a risk factor for diabetes and disorders and diseases associated with diabetes. The effects of compounds of the present invention on regulation of blood pressure were examined as follows. Animals were treated with compound B or compound D and RNA samples were prepared as described above in Example 4. […] Analysis of the relative level of gene expression was performed by quantitative PCR using a FASTSTART DNA MASTER SYBR GREEN I kit (Roche) and gene-specific primers, using a LIGHTCYCLER system (Roche), according to manufacturer's instructions. […]
The relative level of 18S ribosomal RNA gene expression was measured as a control. Quantitative PCR was performed using a QUANTITECT SYBR GREEN PCR kit (Qiagen) and gene-specific primers, using a LIGHTCYCLER system (Roche), according to manufacturer's instructions. […]

O=C(O)CNC(=O)c1nc(Cl)c2ccccc2c1O [compound B, [(1-Chloro4-hydroxy-isoquinoline-3-carbonyl)-amino]-acetic acid]
expression of genes encoding enzymes involved in glucose regulation ([1]; kidney, liver, lung, 4-72 hours after dose, FIGS. 2A-2C): increased in a coordinated fashion | time after which most mRNA levels returned to control levels ([1]; time course): 24 to 48 h | dose dependence of iNOS induction ([2]; 30 and 100 mg/kg/day oral gavage): dose-dependent | expression of the gene encoding iNOS ([2]; oral gavage, within 8 hours following treatment, then returned to control levels, normalized to 18S rRNA): increased
